Measured values from patent US5672715A, “Herbicidal substituted 3-aryl-pyrazoles” (Monsanto Company, priority 1995, dated 1997).
Read-outs that look alike come from different tables or passages of the source.

Columns and labels:
Format in all cases: in vivo
[1] = tested on: Barnyardgrass; assay: post-emergence herbicide test; settings: Echinochloa crus-galli, post-emergence, read-out: % plant inhibition
Method in brief: (§1)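 Two- to three-week-old plants, greenhouse-grown in compacted topsoil, received candidate chemical by atomizer spray at 1870 L/Ha. Scored as percent inhibition.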

[2] = tested on: Blackgrass; assay: post-emergence herbicide test; settings: Alopecurus myosuroides, post-emergence, read-out: % plant inhibition; for inhibition at 7.95803 g/ha: 0.0071 lb/A; for inhibition at 40.0143 g/ha: 0.0357 lb/A; for inhibition at 200.072 g/ha: 0.1785 lb/A; for inhibition at 1000.92 g/ha: 0.893 lb/A
Method in brief: as §1

[3] = tested on: Corn; assay: post-emergence herbicide test; settings: Zea mays, post-emergence, read-out: % plant inhibition
Method in brief: as §1

[4] = tested on: Bedstraw Catchweed; assay: post-emergence herbicide test; settings: Galium aparine, post-emergence, read-out: % plant inhibition
Method in brief: as §1

[5] = tested on: Soybean; assay: post-emergence herbicide test; settings: Glycine max, post-emergence, read-out: % plant inhibition
Method in brief: as §1

[6] = tested on: Cocklebur; assay: post-emergence herbicide test; settings: Xanthium strumarium, post-emergence, read-out: % plant inhibition
Method in brief: as §1

[7] = tested on: Barnyardgrass; assay: pre-emergence herbicide test; settings: Echinochloa crus-galli, pre-emergence, read-out: % plant inhibition
Method in brief: (§2)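 Seeds were sown on compacted topsoil in pans and covered with a topsoil layer carrying a known amount of active ingredient in acetone or water, applied before or after covering. Pans were bottom-watered on a greenhouse bench, and % inhibition was scored about 14 days after seeding and treatment.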

[8] = tested on: Yellow Nutsedge; assay: pre-emergence herbicide test; settings: Cyperus, read-out: % plant inhibition
Method in brief: as §2

[9] = tested on: Yellow Foxtail; assay: pre-emergence herbicide test; settings: Setaria, read-out: % plant inhibition
Method in brief: as §2

[10] = tested on: Corn; assay: pre-emergence herbicide test; settings: Zea mays, pre-emergence, read-out: % plant inhibition
Method in brief: as §2

[11] = tested on: Soybean; assay: pre-emergence herbicide test; settings: Glycine max, pre-emergence, read-out: % plant inhibition
Method in brief: as §2

[12] = tested on: Rice; assay: pre-emergence herbicide test; settings: Oryza sativa, read-out: % plant inhibition
Method in brief: as §2

[13] = tested on: Velvetleaf; assay: pre-emergence herbicide test; settings: Abutilon theophrasti, pre-emergence, read-out: % plant inhibition
Method in brief: as §2

[14] = tested on: Morning Glory; assay: pre-emergence herbicide test; settings: Ipomoea, pre-emergence, read-out: % plant inhibition
Method in brief: as §2

[15] = tested on: Cocklebur; assay: pre-emergence herbicide test; settings: Xanthium strumarium, pre-emergence, read-out: % plant inhibition
Method in brief: as §2

Cc1c(-c2cc(OCC(=O)OC(C)C)c(Cl)cc2F)nn(C)c1C(F)(F)F [Compound 38]
15%: inhibition at 200.072 g/ha ([1]; 0.1785 lb/A) | inhibition at 1000.92 g/ha ([1]; 0.893 lb/A) | inhibition at 280.212 g/ha ([5]; 0.25 lb/A) | inhibition at 40.0143 g/ha ([7]; 0.0357 lb/A)
75%: inhibition at 40.0143 g/ha ([14]; 0.0357 lb/A)
70%: inhibition at 1000.92 g/ha ([7]; 0.893 lb/A) | inhibition at 1000.92 g/ha ([11]; 0.893 lb/A) | inhibition at 280.212 g/ha ([15]; 0.25 lb/A)
0%: inhibition at 7.95803 g/ha ([2]; Table 4a) | inhibition at 7.95803 g/ha ([2]; Table 5a) | inhibition at 40.0143 g/ha ([2]; Table 4a) | inhibition at 1000.92 g/ha ([2]; Table 4a) | inhibition at 7.95803 g/ha ([7]; 0.0071 lb/A) | inhibition at 7.95803 g/ha ([8]; 0.0071 lb/A) | inhibition at 200.072 g/ha ([8]; 0.1785 lb/A) | inhibition at 7.95803 g/ha ([9]; 0.0071 lb/A) | inhibition at 40.0143 g/ha ([9]; 0.0357 lb/A) | inhibition at 7.95803 g/ha ([10]; 0.0071 lb/A) | inhibition at 40.0143 g/ha ([10]; 0.0357 lb/A) | inhibition at 200.072 g/ha ([10]; 0.1785 lb/A) | inhibition at 7.95803 g/ha ([11]; 0.0071 lb/A) | inhibition at 280.212 g/ha ([11]; 0.25 lb/A) | inhibition at 7.95803 g/ha ([12]; 0.0071 lb/A) | inhibition at 40.0143 g/ha ([12]; 0.0357 lb/A) | inhibition at 200.072 g/ha ([12]; 0.1785 lb/A)
90%: inhibition at 200.072 g/ha ([4]; 0.1785 lb/A) | inhibition at 1000.92 g/ha ([15]; 0.893 lb/A)
35%: inhibition at 7.95803 g/ha ([4]; 0.0071 lb/A) | inhibition at 200.072 g/ha ([7]; 0.1785 lb/A)
80%: inhibition at 7.95803 g/ha ([6]; 0.0071 lb/A) | inhibition at 40.0143 g/ha ([6]; 0.0357 lb/A) | inhibition at 200.072 g/ha ([6]; 0.1785 lb/A) | inhibition at 40.0143 g/ha ([13]; 0.0357 lb/A)
20%: inhibition at 40.0143 g/ha ([5]; 0.0357 lb/A) | inhibition at 40.0143 g/ha ([8]; 0.0357 lb/A) | inhibition at 7.95803 g/ha ([14]; 0.0071 lb/A)
40%: inhibition at 280.212 g/ha ([9]; 0.25 lb/A) | inhibition at 1000.92 g/ha ([10]; 0.893 lb/A) | inhibition at 1000.92 g/ha ([12]; 0.893 lb/A)
85%: inhibition at 40.0143 g/ha ([4]; 0.0357 lb/A) | inhibition at 1000.92 g/ha ([4]; 0.893 lb/A) | inhibition at 1000.92 g/ha ([8]; 0.893 lb/A) | inhibition at 200.072 g/ha ([15]; 0.1785 lb/A)
65%: inhibition at 1000.92 g/ha ([9]; 0.893 lb/A) | inhibition at 40.0143 g/ha ([15]; 0.0357 lb/A)
100%: inhibition at 280.212 g/ha ([6]; 0.25 lb/A) | inhibition at 1000.92 g/ha ([6]; 0.893 lb/A) | inhibition at 7.95803 g/ha ([13]; 0.0071 lb/A) | inhibition at 280.212 g/ha ([13]; 0.25 lb/A) | inhibition at 1000.92 g/ha ([13]; 0.893 lb/A) | inhibition at 280.212 g/ha ([14]; 0.25 lb/A) | inhibition at 1000.92 g/ha ([14]; 0.893 lb/A)
5%: inhibition at 1000.92 g/ha ([2]; Table 5a) | inhibition at 7.95803 g/ha ([3]; 0.0071 lb/A) | inhibition at 40.0143 g/ha ([11]; 0.0357 lb/A)
30%: inhibition at 200.072 g/ha ([2]; Table 5a) | inhibition at 200.072 g/ha ([5]; 0.1785 lb/A)
25%: inhibition at 40.0143 g/ha ([2]; Table 5a) | inhibition at 200.072 g/ha ([3]; 0.1785 lb/A) | inhibition at 1000.92 g/ha ([3]; 0.893 lb/A) | inhibition at 1000.92 g/ha ([5]; 0.893 lb/A) | inhibition at 200.072 g/ha ([9]; 0.1785 lb/A)
98%: inhibition at 200.072 g/ha ([13]; 0.1785 lb/A)
95%: inhibition at 200.072 g/ha ([14]; 0.1785 lb/A)
10%: inhibition at 7.95803 g/ha ([1]; 0.0071 lb/A) | inhibition at 40.0143 g/ha ([1]; 0.0357 lb/A) | inhibition at 200.072 g/ha ([2]; Table 4a) | inhibition at 40.0143 g/ha ([3]; 0.0357 lb/A) | inhibition at 280.212 g/ha ([3]; 0.25 lb/A) | inhibition at 7.95803 g/ha ([5]; 0.0071 lb/A)
